This is an account of results in US20240050943A1, “MULTI-VOLUME MICROCHAMBER-BASED MICROFLUIDIC PLATFORM AND USE THEREOF” (CORNELL UNIVERSITY, priority 2020, published 2024).

Experiment [1] has as its system GFP-labeled E. coli 541-15. The experiment in a line: Antibiotic susceptibility test (AST) in the EL-MVM^2 microfluidic platform, resazurin fluorescence / GFP readout. The format is cell-based. Conditions: GFP-labeled E. coli 541-15, 4.5 hours of incubation; intermediate sub-GCP = 1.12-12.54 μg/mL.
The next experiment deals with E. coli 541-15. The experiment in a line: Gold standard broth microdilution (BMD) test, OD600. The settings on record: E. coli 541-15, 1×10^6 CFU/mL. Format: cell-based. On the technique in general: Dilution methods test growth across graded concentrations, often in twofold steps.

For Gentamicin, the “Turning point of GFP-labeled bacterial growth from partially to totally inhibited” value in experiment [1] is on record as “intermediate concentration range”. Also, the “MIC (broth microdilution, OD600 nm, 80% reduction)” value against E. coli 541-15 was found to be 5.00 µg/mL.
